Measured values taken from patent US11406103B2, “Sanitizing rinse based on quat-anionic surfactant synergy” (Ecolab USA Inc., priority 2016, dated 2022).
“Also recorded” adds a separate entry of the source. Like-named read-outs stand apart in the source and are kept apart here.

How the values were obtained:
[1] = test system: Escherichia coli ATCC 11229; assay: Low temperature warewash sanitizing rinse test; assay type: cell-based; details: anionic surfactant paired with quaternary ammonium compound, in this study
Procedure: The sanitizing efficiency was determined for the experimental formulas of Table 8A-8B using the following procedure: • 1.) Set up low temperature ware wash machine to our specific settings (see 7-cycle procedure) • a. Set water Temperature (120° F.) • b. Check water Hardness (4-6 gpg) • c. Set water flow rate • d. Hand dose in chemistry, no need to set up (50 ppm Quat, 50 ppm Bleach) • e. Watch these variables throughout tests • 2.) Have 10 processed Libby glasses for each tested chemistry run • a. 5 will be unwashed controls • b. 5 will be washed to detect kill • 3.) Have enough sterile tubs to hold glasses—supplied by Micro • a. Max 20 glasses per tub, or 2 runs • 4.) Have enough swabs to collect specimen—supplied by Micro • a. Need 2 per run or 1 swab per 5 glasses • 5.) Have 1 buffer solution tube per 5 glasses, 2 per run • 6.) Have Micro bring in an E. coli suspension • 7.) Get 10 glasses ready in easy reach • 8.) Fill one glass, an inch from the top, with E. coli suspension • a. Start timer for 10 minutes at this point • 9.) Pour E. coli Suspension from first glass into second glass, from second glass into third, and so on • 10.) Dip the top inch of each soiled glass into E. coli suspension to coat rim • 11.) Set glasses upside down in a sterile tub and let dry for 10 minutes • 12.) Swab 5 of the 10 glasses as your test control group • a. […]

[2] = Dynamic surface tension (SITA science line t60, bubble pressure); assay type: physicochemical
Procedure: The SITA science line t60 measures the dynamic surface tension of liquids up to the semi-static range. Air bubbles are generated from a capillary with known radius. The bubble pressure is measured as a function of bubble life time, which can be correlated to the surface tension according to the Young-Laplace equation. […] The dynamic surface tension behavior of surfactants is particularly important in applications where a quick response of surfactant is required, for example, in short rinse cycles of automated dishwashing.
The SITA science line t60 was calibrated with DI water. […] Following calibration, the SITA was programmed to take readings at the desired time intervals (i.e., 0.3, 1.6, 3.0, 9.1 seconds).
10-15 mL were transferred into 20 mL vials and immersed in a water bath to 25° C.±2° C. The samples were equilibrated for 10-15 minutes. The samples were individually tested. After each sample was tested the SITA's cleaning procedure was run, then the surface tension of DI water was checked to ensure the SITA was adequately clean. If the DI water measurements were not within 72.0±1.0 mN/m, then the cleaning procedure was run again. […]

[3] = Glewwe foam test; assay type: physicochemical
Procedure: A test was run to determine the foam profiles of the five quat solutions of Example 1. A Glewwe foam apparatus in combination with the following procedure was used for this test. First, each quat was prepared and gently poured into a Glewwe cylinder. Samples tested contained a concentration of 50 ppm of the indicated antimicrobial quats. A ruler was attached to the side of the cylinder, and the solution was level with the bottom of the ruler. The pump was turned on. Foam height was estimated by reading the average level of foaming according to the ruler. Foam height readings were taken versus time with a stopwatch or timer. The pump was turned off and height of the foam was recorded at various times. […] The foam level was read after 15 seconds of agitation and again after 60 seconds of agitation for a given amount of time. A stable foam is defined when the foam remains for several minutes after agitation is stopped. A partially stable foam breaks slowly within a minute. An unstable foam breaks rapidly in less than 15 seconds. A desirable rinse should have unstable foam to no foam. In contrast, antimicrobial hand soap should have stable foam.
The results from the foaming test are shown in FIG. 2, and described in Table 3 below.
Another foam evaluation test was run using the procedure described in Example 2.
The inclusion of additional additives (defoamer and solubilizer/booster, such as Emulsogen) to the Quat-Anionic surfactant pairs were also analyzed, provided in Table 5 below (5A-5B), using the procedure described in Example 2.

Compound	antimicrobial synergy with quat, in words [1]	Dynamic Surface Activity [2]	Foaming Profile [3]	other results
CCCCCCCCCC(=O)O [Decanoic acid]	best antimicrobial synergy	–	–	–
CCCCCCCC(=O)O [Octanoic acid]	best antimicrobial synergy	–	–	–
Alkyl Benzyl ammonium chloride [Uniquat QAC-50]	–	–	–	Dynamic Surface Activity ([2]; ranking 1-5 among five quats, 100 ppm quat, 75° F.): 3; Foaming Profile ([3]; ranking 1-5, Glewwe Foam Test, 50 ppm Quat, 6psi, 140° F.): 1
Didecyl (C10) dimethyl ammonium chloride [Bardac 2250]	–	1	3	–
Dioctyl (C8) dimethyl ammonium chloride [Bardac LF80]	–	5	5	Dynamic surface tension [2]: 69 mN/m; dynamic surface tension / surface activity, in words [2]: least surface active; also recorded: very low surface activity; also recorded: very little surface activity; foam profile, in words [3]: lowest foam profile
